{
  "source": "patent US20120028888A1",
  "about": "“APJ RECEPTOR COMPOUNDS” (priority 2008, published 2012)",
  "key": {"mouse heart function": {"tested_on": "mouse heart function", "experiment": "Langendorff heart preparation, developed pressure", "type": "ex vivo", "conditions": "isolated perfused mouse heart, 15 minutes", "description": "A pressure-sensing balloon catheter was inserted in the LV cavity to record changes in the developed pressure. Heart function was assessed by measuring standard parameters such as heart rate, mean peak systolic pressure, mean end diastolic pressure, developed pressure, dP/dt max, and dP/dt min."}, "[1]": {"target": "T1, Gi-coupled receptor APJ (HEK cells stably expressing the APJ receptor) (Homo sapiens, UniProt P35414)", "T1 construct": "expressed in transfected cells; host or cells: HEK cells stably expressing APJ", "T1 sequence (P35414 1-380)": "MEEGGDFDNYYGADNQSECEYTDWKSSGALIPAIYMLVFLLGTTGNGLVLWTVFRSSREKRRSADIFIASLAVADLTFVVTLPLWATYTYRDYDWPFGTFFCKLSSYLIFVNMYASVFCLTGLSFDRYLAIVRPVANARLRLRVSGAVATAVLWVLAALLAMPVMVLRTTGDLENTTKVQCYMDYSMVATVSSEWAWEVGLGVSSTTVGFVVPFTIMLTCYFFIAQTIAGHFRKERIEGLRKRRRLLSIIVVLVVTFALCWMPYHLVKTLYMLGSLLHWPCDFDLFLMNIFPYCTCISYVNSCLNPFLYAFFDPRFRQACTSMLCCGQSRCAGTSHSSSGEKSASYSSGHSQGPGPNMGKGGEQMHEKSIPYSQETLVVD", "experiment": "HTRF cAMP assay: inhibition of NKH477 stimulated increase in cAMP", "type": "cell-based", "conditions": "read-out: EC50 value (nM), SEM", "from_the_text": "HTRF (homogeneous time resolved fluorescence) is a technology developed by Cisbio Bioassays based on TR-FRET (time-resolved fluorescence resonance energy transfer). Cisbio Bioassays has developed a wide selection of HTRF-based assays compatible with whole cells, thereby enabling functional assays to run under more physiological conditions. The IP-One assays are competitive immunoassays using cryptate-labeled anti-IPI monoclonal antibody and d2-labeled IP1. IP1 is a relatively stable downstream metabolite of IP3, and accumulates in cells following Gq receptor activation.\ncAMP kits based on a competitive immunoassay using cryptate-labeled anti-cAMP antibody and d2-labeled cAMP were used to assay the effects of APJ compounds of the present invention. This assay measures the increase in intracellular cAMP upon Gs-coupled receptor activation as well as decrease in forskolin (or a more soluble version of forskolin—NKH477) stimulated increase in cAMP upon Gi-coupled receptor activation."}, "APJ receptor": {"target": "APJ receptor (Homo sapiens (Human), UniProt P35414)", "experiment": "cell-based or functional assay"}},
  "note": "Residues, ends and D or L forms follow the SMILES beside them. *: point of attachment. Palmitoyl = CCCCCCCCCCCCCCCC(=O)*",
  "data": [
    {"molecule": "apelin-13 [reference compound]", "values": [
      {"measurement": "effect on mouse heart function (developed pressure, inotropic effect)", "setting": "mouse heart function", "value": "increase in developed pressure"}
    ]},
    {"molecule": "CCCCCCCCCCCCCCCC(=O)N[C@H](C(=O)N[C@H](C(=O)N[C@@H](Cc1ccccc1)C(=O)N[C@@H](C)C(=O)N[C@@H](CO)C(=O)N[C@@H](CO)C(=O)N[C@@H](CCCNC(=N)N)C(=O)N[C@@H](CCC(=O)O)C(=O)N[C@@H](CCCCN)C(=O)N[C@@H](CCCNC(=N)N)C(=O)N[C@@H](CCCNC(=N)N)C(=O)N[C@@H](CO)C(=O)N[C@@H](C)C(=O)N[C@@H](CC(=O)O)C(=O)N[C@H](C(=O)N[C@@H](Cc1ccccc1)C(=O)N[C@H](C(N)=O)[C@@H](C)CC)[C@@H](C)CC)C(C)C)[C@@H](C)O", "note": "[Compound 24] (Palmitoyl-TVFASSREKRRSADIFI-NH2)", "values": [
      {"measurement": "EC50", "setting": "[1]", "value": "1000 to 5000", "unit": "nM"}
    ]},
    {"molecule": "CCCCCCCCCCCCCCCC(=O)N[C@H](C(=O)N[C@H](C(=O)N[C@@H](Cc1ccccc1)C(=O)N[C@@H](CCCNC(=N)N)C(=O)N[C@@H](CO)C(=O)N[C@@H](CO)C(=O)N[C@@H](CCCNC(=N)N)C(=O)N[C@@H](CCC(=O)O)C(=O)N[C@@H](CCCCN)C(=O)N[C@@H](CCCNC(=N)N)C(=O)N[C@@H](CCCNC(=N)N)C(=O)N[C@@H](CO)C(=O)N[C@@H](C)C(=O)N[C@@H](CC(=O)O)C(=O)N[C@H](C(=O)N[C@@H](Cc1ccccc1)C(=O)N[C@H](C(=O)O)[C@@H](C)CC)[C@@H](C)CC)C(C)C)[C@@H](C)O", "note": "[Compound 42] (Palmitoyl-TVFRSSREKRRSADIFI-OH)", "values": [
      {"measurement": "EC50", "setting": "[1]", "value": "1000 to 5000", "unit": "nM"}
    ]},
    {"molecule": "CCCCCCCCCCCCCCCC(=O)N[C@H](C(=O)N[C@H](C(=O)N[C@@H](Cc1ccccc1)C(=O)N[C@@H](CCCNC(=N)N)C(=O)N[C@@H](CO)C(=O)N[C@@H](CO)C(=O)N[C@@H](CCCNC(=N)N)C(=O)N[C@@H](CCC(=O)O)C(=O)N[C@@H](CCCCN)C(=O)N[C@@H](CCCNC(=N)N)C(=O)N[C@@H](CCCNC(=N)N)C(=O)N[C@@H](CO)C(=O)N[C@@H](C)C(=O)N[C@@H](CC(=O)O)C(=O)N[C@H](C(=O)N[C@@H](Cc1ccccc1)C(=O)N[C@H](C(N)=O)[C@@H](C)CC)[C@@H](C)CC)C(C)C)[C@@H](C)O", "note": "[Compound 12] (Palmitoyl-TVFRSSREKRRSADIFI-NH2)", "values": [
      {"measurement": "effect on mouse heart function (developed pressure, inotropic effect)", "setting": "mouse heart function", "value": "demonstrates inotropic activity"},
      {"measurement": "EC50", "setting": "[1]", "value": "1 to 500", "unit": "nM"}
    ]},
    {"molecule": "Palmitoyl-FRSSREKRRSADIFI-NH2 (SMILES CCCCCCCCCCCCCCCC(=O)N[C@@H](Cc1ccccc1)C(=O)N[C@@H](CCCNC(=N)N)C(=O)N[C@@H](CO)C(=O)N[C@@H](CO)C(=O)N[C@@H](CCCNC(=N)N)C(=O)N[C@@H](CCC(=O)O)C(=O)N[C@@H](CCCCN)C(=O)N[C@@H](CCCNC(=N)N)C(=O)N[C@@H](CCCNC(=N)N)C(=O)N[C@@H](CO)C(=O)N[C@@H](C)C(=O)N[C@@H](CC(=O)O)C(=O)N[C@H](C(=O)N[C@@H](Cc1ccccc1)C(=O)N[C@H](C(N)=O)[C@@H](C)CC)[C@@H](C)CC)", "note": "[Compound 11 Pal-FRSSREKRRSADIFI-Amide]", "values": [
      {"measurement": "EC50 value (nM), HTRF cAMP assay", "setting": "APJ receptor", "value": "≤ 500", "unit": "nM"}
    ]},
    {"molecule": "Palmitoyl-TVFRSSREKRRSADIFI-NH2 (SMILES CCCCCCCCCCCCCCCC(=O)N[C@H](C(=O)N[C@H](C(=O)N[C@@H](Cc1ccccc1)C(=O)N[C@@H](CCCNC(=N)N)C(=O)N[C@@H](CO)C(=O)N[C@@H](CO)C(=O)N[C@@H](CCCNC(=N)N)C(=O)N[C@@H](CCC(=O)O)C(=O)N[C@@H](CCCCN)C(=O)N[C@@H](CCCNC(=N)N)C(=O)N[C@@H](CCCNC(=N)N)C(=O)N[C@@H](CO)C(=O)N[C@@H](C)C(=O)N[C@@H](CC(=O)O)C(=O)N[C@H](C(=O)N[C@@H](Cc1ccccc1)C(=O)N[C@H](C(N)=O)[C@@H](C)CC)[C@@H](C)CC)C(C)C)[C@@H](C)O)", "note": "[Compound 12 Pal-TVFRSSREKRRSADIFI-Amide]", "values": [
      {"measurement": "EC50 value (nM), HTRF cAMP assay", "setting": "APJ receptor", "value": "≤ 500", "unit": "nM"}
    ]},
    {"molecule": "Palmitoyl-QTIAGHFRKERIEGLRKRRRLLA-NH2 (SMILES CCCCCCCCCCCCCCCC(=O)N[C@@H](CCC(N)=O)C(=O)N[C@H](C(=O)N[C@H](C(=O)N[C@@H](C)C(=O)NCC(=O)N[C@@H](Cc1c[nH]cn1)C(=O)N[C@@H](Cc1ccccc1)C(=O)N[C@@H](CCCNC(=N)N)C(=O)N[C@@H](CCCCN)C(=O)N[C@@H](CCC(=O)O)C(=O)N[C@@H](CCCNC(=N)N)C(=O)N[C@H](C(=O)N[C@@H](CCC(=O)O)C(=O)NCC(=O)N[C@@H](CC(C)C)C(=O)N[C@@H](CCCNC(=N)N)C(=O)N[C@@H](CCCCN)C(=O)N[C@@H](CCCNC(=N)N)C(=O)N[C@@H](CCCNC(=N)N)C(=O)N[C@@H](CCCNC(=N)N)C(=O)N[C@@H](CC(C)C)C(=O)N[C@@H](CC(C)C)C(=O)N[C@@H](C)C(N)=O)[C@@H](C)CC)[C@@H](C)CC)[C@@H](C)O)", "note": "[Compound 96 Pal-QTIAGHFRKERIEGLRKRRRLLA-Amide]", "values": [
      {"measurement": "EC50 value (nM), HTRF cAMP assay", "setting": "APJ receptor", "value": "≤ 500", "unit": "nM"}
    ]}
  ]
}
